Experiments:
Format in all cases: in vivo
Acarus siro [1] = assay: Binary choice test in Petri dish, felt with lavandulol composition versus felt with water
Method: (§1) A group of mites (20<n<40) was placed in the center of a Petri dish (diameter 5.5 cm) around which two felt pieces (density of 70 mg/cm^2, thickness of 2 mm) were placed equidistant. The first felt piece was impregnated with water and the other felt piece was impregnated with the lavandulol composition at different dilutions. The diluted lavandulol solutions were prepared from a 90-95% pure lavandulol stock solution (Phytolab, catalog No. 80887). Mites moved spontaneously towards one of the two felt pieces. The number of mites migrating to one side or to the other side was counted and this distribution was compared to a situation where mites were placed in a Petri dish containing two felt pieces impregnated with water. Observations, counting, and identification of mites' species were performed under binocular microscope (magnification 10×). The set-up is illuminated with a cold lamp (KL 1500 LCD, Schott ●), the lighting is symmetric and the light intensity was 50Klux. The experimental conditions were controlled in the room (T° C.: 19-22° C. and RH 40%).

Tyrophagus putrescentiae [2] = assay: as above
Method: as §1

Acarus siro [3] = assay: Toxicity, indirect contact (inhalation, 24 hours)
Method: (§2) FIG. 10 is a set of graphs showing the percentage of dead mites after 24 hours of inhalation of lavandulol at different concentrations (0.18 μL, 3 μL or 8 μL of pure solution) or water (Ctrl). Four species of mites were tested: Dermatophagoides pteronyssinus (DP), Dermatophagoides farinae (DF), Tyrophagus putrescentiae (TP) and Acarus siro (AS).
(§3) The species studied were two species of dust common in mattresses in Eurasia (Dermatophagoides pteronyssinus and Dermatophagoides farinae), and two species of stored food mites common in Eurasia (Tyrophagus putrescentiae and Acarus siro). These four species were reared under defined conditions (20° C. and 75% relative humidity). The house dust mites were fed with human flakes (skin and whiskers obtained by cleaning electric shavers) and stored food mites were fed with fish food. The experiments were performed at 20° C. and 40% relative humidity.
(§4) For each of the four species, a group of a mites (10<n<25) was placed in a Petri dish (diameter 5.5 cm). This dish was then recovered by a filter paper that enabled gas-exchange and placed into another dish (diameter 9 cm), in which was placed a piece of paper filter (5×1 cm) impregnated with lavandulol at various concentration (0.18 μL, 3 μL, or 8 μL of pure solution, corresponding respectively to 0.15 mg, 2.5 mg or 6.67 mg of lavandulol), or with water. The bigger of the two dishes was then covered.
(§5) After 24 hours, the number of dead mites were counted. The death of a mite was determined by reaction to a stimulation with a needle: lack of reaction and the persistence of immobility indicated death. This experiment was repeated three times with the four species.
(§6) Observations and counting of mites were made under binocular microscope (magnification 10×). The set-up is illuminated with a cold lamp (KL 1500 LCD, Schott ●), the lighting is symmetric and the light intensity was 50Klux. The experimental conditions were controlled in the room (T° C.: 19-22° C. and RH 40%).

Dermatophagoides farinae [4] = assay: Toxicity, indirect contact (inhalation, 24 hours)
Method: as §2, §3, §4, §5, §6

[5] = test system: Dermatophagoides pteronyssinus; assay: Toxicity, indirect contact (inhalation, 24 hours)
Method: as §2, §3, §4, §5, §6

Tyrophagus putrescentiae [6] = assay: Toxicity, indirect contact (inhalation, 24 hours)
Method: as §2, §3, §4, §5, §6

Acarus siro [7] = assay: Toxicity, direct contact
Method: (§7) FIGS. 11A-11D are sets of graphs showing the percentage of dead mites after direct contact with different doses of lavandulol (at a dilution of 10^−6, 0.184 of pure solution or 0.5 μL of pure solution) or water (Ctrl) for different time of exposure. Four species of mites were tested: Dermatophagoides pteronyssinus (FIG. 11A), Dermatophagoides farinae (FIG. 11B), Tyrophagus putrescentiae (FIG. 11C) and Acarus siro (FIG. 11D).
as §3
(§8) For this experiment, for each of the four species, a group of mites (10<n<25) was placed in a Petri dish in direct contact with the substance to test. To directly contact mites with the substance, a piece of paper filter (5×1 cm) impregnated with lavandulol at various concentration (10 μL of a 10^−6 dilution, 0.18 μL of pure solution and 0.5 μL of pure solution, corresponding respectively to 8.8 ng, 0.15 mg or 0.417 mg of lavandulol), or with a neutral solution, was placed in the Petri dish. The dish was then closed with Parafilm●.
(§9) After a determined time (15 min, 1 hour or 24 hours), the number of dead mites were counted as previously described.

Dermatophagoides farinae [8] = assay: Toxicity, direct contact
Method: as §7, §3, §8, §9

[9] = test system: Dermatophagoides pteronyssinus; assay: Toxicity, direct contact
Method: as §7, §3, §8, §9

Tyrophagus putrescentiae [10] = assay: Toxicity, direct contact
Method: as §7, §3, §8, §9

[11] = at least at a dilution of 10^−3, even more at least at 10^−6
[12] = pure lavandulol volumes of 3 μL and 8 μL
[13] = 10^−6 dilution (10 μL), 15 min, 1 hour or 24 hours
[14] = pure solutions (0.18 μL and 0.5 μL), after 1 hour
[15] = pure solutions (0.18 μL and 0.5 μL), after 24 hours

Question: For `C=C(C)C(CO)CC=C(C)C` (stereo not shown) [Lavandulol, 5-Methyl-2-prop-1-en-2-ylhex-4-en-1-ol], which “Number of mites on the felt piece impregnated with the lavandulol composition” value (from here on “Number of mites”) (Acarus siro [1]; Dilution 10^−3) is on record?
Answer: 44%

Question: What about the “Number of mites” value (Acarus siro [1]; Dilution 10^−6) of the same molecule?
Answer: 48%

Question: What about the “Number of mites” value (Acarus siro [1]; Dilution 10^−9) of the same molecule?
Answer: 40%

Question: What about the “Number of mites” value (Acarus siro [1]; Dilution 10^−12) of the same molecule?
Answer: 55%

Question: What about the “Number of mites” value (Acarus siro [1]; Dilution 10^−14) of the same molecule?
Answer: 54%

Question: What about the “Number of mites” value (Acarus siro [1]; Dilution 10^−16) of the same molecule?
Answer: 50%

Question: What about the “Number of mites” value (Acarus siro [1]; Dilution Undiluted) of the same molecule?
Answer: 1.1%

Question: And the “attraction of mites (in words)” value (Acarus siro [1]; [11])?
Answer: efficiently attracts mites

Question: And the “attraction of mites (in words)” value (Acarus siro [1]; undiluted solution)?
Answer: fails to attract mites

Question: And the “Number of mites” value (Tyrophagus putrescentiae [2]; Dilution 10^−3)?
Answer: 34%

Question: And the “Number of mites” value (Tyrophagus putrescentiae [2]; Dilution 10^−6)?
Answer: 44%

Question: And the “Number of mites” value (Tyrophagus putrescentiae [2]; Dilution 10^−7)?
Answer: 48%

Question: And the “Number of mites” value (Tyrophagus putrescentiae [2]; Dilution 10^−9)?
Answer: 38%

Question: And the “Number of mites” value (Tyrophagus putrescentiae [2]; Dilution 10^−12)?
Answer: 47%

Question: What about the “Number of mites” value (Tyrophagus putrescentiae [2]; Dilution 10^−13) of the same molecule?
Answer: 49%

Question: What about the “Number of mites” value (Tyrophagus putrescentiae [2]; Dilution 10^−14) of the same molecule?
Answer: 69%

Question: And the “Number of mites” value (Tyrophagus putrescentiae [2]; Dilution 10^−15)?
Answer: 63%

Question: What about the “Number of mites” value (Tyrophagus putrescentiae [2]; Dilution 10^−16) of the same molecule?
Answer: 60%

Question: And the “Number of mites” value (Tyrophagus putrescentiae [2]; Dilution Undiluted)?
Answer: 2%

Question: And the “attraction of mites (in words)” value (Tyrophagus putrescentiae [2]; [11])?
Answer: efficiently attracts mites

Question: What about the “attraction of mites (in words)” value (Tyrophagus putrescentiae [2]; undiluted solution) of the same molecule?
Answer: fails to attract mites

Question: And the “mortality of mites by inhalation” value (Acarus siro [3]; lavandulol volume of 0.18 μL)?
Answer: not lethal

Question: And the “mortality of mites by inhalation” value (Acarus siro [3]; [12])?
Answer: high mortality

Question: What about the “mortality of mites by inhalation” value (Dermatophagoides farinae [4]; lavandulol volume of 0.18 μL) of the same molecule?
Answer: not lethal

Question: And the “mortality of mites by inhalation” value (Dermatophagoides farinae [4]; [12])?
Answer: high mortality

Question: And the “mortality of mites by inhalation” value ([5]; lavandulol volume of 0.18 μL)?
Answer: not lethal

Question: And the “mortality of mites by inhalation” value [5, 12]?
Answer: high mortality

Question: What about the “mortality of mites by inhalation” value (Tyrophagus putrescentiae [6]; lavandulol volume of 0.18 μL) of the same molecule?
Answer: not lethal

Question: What about the “mortality of mites by inhalation” value (Tyrophagus putrescentiae [6]; [12]) of the same molecule?
Answer: high mortality

Question: What about the “death of mites by contact” value (Acarus siro [7]; [13]) of the same molecule?
Answer: doesn't cause death of mites

Question: And the “mites died by contact” value (Acarus siro [7]; [14])?
Answer: 97%

Question: What about the “death of mites by contact” value (Dermatophagoides farinae [8]; [13]) of the same molecule?
Answer: doesn't cause death of mites

Question: And the “death of mites by contact” value (Dermatophagoides farinae [8]; [14])?
Answer: lead to mites' death

Question: And the “death of mites by contact” value (Dermatophagoides farinae [8]; [15])?
Answer: all mites being died

Question: And the “death of mites by contact” value [9, 13]?
Answer: doesn't cause death of mites

Question: And the “death of mites by contact” value [9, 14]?
Answer: lead to mites' death

Question: What about the “death of mites by contact” value [9, 15] of the same molecule?
Answer: all mites being died

Question: And the “death of mites by contact” value (Tyrophagus putrescentiae [10]; [13])?
Answer: doesn't cause death of mites

Question: What about the “death of mites by contact” value (Tyrophagus putrescentiae [10]; [14]) of the same molecule?
Answer: lead to mites' death

Question: And the “death of mites by contact” value (Tyrophagus putrescentiae [10]; [15])?
Answer: all mites being died
